Assay results reported in patent US10969387B2, “Compounds, complexes, and methods useful for detecting and/or treating bacterial pathogens” (REGENTS OF THE UNIVERSITY OF MINNESOTA, priority 2015, dated 2021).

Legend:
FepA = FepA (Escherichia coli, UniProt P05825); details: Thulasiraman et al., J Bacteriol. 1998; cited from earlier work
E. coli [1] = details: Thulasiraman et al., J Bacteriol. 1998; cited from earlier work
E. coli [2] = test: Bacteria detection by fluorescence in T media (probe uptake), E. coli; assay type: cell-based; details: dye not conjugated to an enterobactin analogue; control experiment (FIG. 28)
Description: Sample Processing for Bacteria Detection by Fluorescence in T Media Experiments with Bacteria Genus
• 1. Bacteria is prepared • a. Sub bacteria onto blood agar and incubate overnight • b. Select several colonies and grow overnight in LB media at 37° C. in room air on orbital shaker • c. 100 μl of overnight culture is placed into 100 ml T media, incubated for 5 hours (E. coli, Salmonella, A. baumannii, Klebsiella pneumoniae) or 10 hours (B. subtillus, S. aureus) • d. Quantitate using 1:10 dilution and plating 100 μl of dilutions onto blood agar • 2. Prepare the samples in 1.5 microcentrifuge tubes, vortex, in triplicate • a. For each bacteria • i. 1 ml bacteria+25 μl Tris • ii. 1 ml bacteria+25 μl Probe • b. For each run include controls • i. 1 ml T media+25 μl Tris • ii. […] 24+ hours count colonies on quantitative cultures
The effect of probe chemical structure on response can be seen in FIG. 28 in an increase in fluorescence intensity after incubation of E. coli with Ga-TREN-CAM-C2-OG (example 1), Ga-TREN-GlyCAM-GluCAM-OG (example 2), Ga-3,3-LiCAM-GluCAM-OG (example 4), Ga-2,2-LiCAM-GluCAM (example 5), and the non-targeted dye OREGON GREEN dye. […]
The effect of metal ion on probe uptake can be seen in FIG. 29 in anincrease in fluorescence intensity after incubation of E. coli with Ga-3,3-LiCAM-GluCAM-OG, Fe-3,3-LiCAM-GluCAM, the apo probe, 3,3-LiCAM-GluCAM-OG, and the non-target OREGON GREEN dye. […]

Sequence of FepA (P05825 23-746): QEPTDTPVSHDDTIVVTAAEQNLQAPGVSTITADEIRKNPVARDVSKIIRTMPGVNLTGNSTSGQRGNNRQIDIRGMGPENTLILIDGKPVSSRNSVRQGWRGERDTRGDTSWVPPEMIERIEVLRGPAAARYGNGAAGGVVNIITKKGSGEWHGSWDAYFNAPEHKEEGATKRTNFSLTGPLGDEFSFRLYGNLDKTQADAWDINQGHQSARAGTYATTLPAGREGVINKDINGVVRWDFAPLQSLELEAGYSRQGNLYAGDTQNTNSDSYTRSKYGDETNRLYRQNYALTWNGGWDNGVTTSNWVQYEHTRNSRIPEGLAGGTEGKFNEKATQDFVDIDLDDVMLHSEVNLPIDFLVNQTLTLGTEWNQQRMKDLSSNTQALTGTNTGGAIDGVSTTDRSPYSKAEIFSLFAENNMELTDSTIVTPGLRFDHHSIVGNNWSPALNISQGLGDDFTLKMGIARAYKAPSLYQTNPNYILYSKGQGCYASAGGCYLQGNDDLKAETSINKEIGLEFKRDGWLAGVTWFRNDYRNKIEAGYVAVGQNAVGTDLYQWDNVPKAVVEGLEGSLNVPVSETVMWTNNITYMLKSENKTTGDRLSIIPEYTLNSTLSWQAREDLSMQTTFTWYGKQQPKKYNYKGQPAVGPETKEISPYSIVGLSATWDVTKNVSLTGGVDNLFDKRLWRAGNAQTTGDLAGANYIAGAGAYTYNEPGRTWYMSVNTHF

Compound	recognition by FepA (FepA)	uptake by E. coli (E. coli [1])	accumulation in bacteria (E. coli [2])
O=C(NCCN(CCNC(=O)c1cccc(O)c1O)CCNC(=O)c1cccc(O)c1O)c1cccc(O)c1O [TREN-CAM]	recognized by FepA	actively taken up by E. coli	–
OREGON GREEN	–	–	does not accumulate in bacteria
